Source: publication PMC3690439 (Nuclear medicine and biology, 2012)
Where two headings read alike, the source gives them in different places. Each block holds one compound with its values, some of them ahead of it.

What was measured:
P-glycoprotein (Pgp) = P-glycoprotein (Pgp) (Homo sapiens, UniProt P08183); assay: Rhodamine 123 efflux inhibition assay in CCRFvcr1000 cells; type: cell-based
EMT6Ar1.0 tumors = conditions: murine tumor model; cited from earlier work
[1] = test system: P-glycoprotein (Pgp) at the blood-brain barrier; conditions: Mdr1a/b(-/-) mice; cited from earlier work
[2] = biological target: P-glycoprotein (Pgp) at the blood-brain barrier (Mus musculus, UniProt P21447); conditions: FVB wild-type mice; cited from earlier work
Chain of P-glycoprotein (Pgp) at the blood-brain barrier (Mus musculus, UniProt P21447) (P21447 whole entry): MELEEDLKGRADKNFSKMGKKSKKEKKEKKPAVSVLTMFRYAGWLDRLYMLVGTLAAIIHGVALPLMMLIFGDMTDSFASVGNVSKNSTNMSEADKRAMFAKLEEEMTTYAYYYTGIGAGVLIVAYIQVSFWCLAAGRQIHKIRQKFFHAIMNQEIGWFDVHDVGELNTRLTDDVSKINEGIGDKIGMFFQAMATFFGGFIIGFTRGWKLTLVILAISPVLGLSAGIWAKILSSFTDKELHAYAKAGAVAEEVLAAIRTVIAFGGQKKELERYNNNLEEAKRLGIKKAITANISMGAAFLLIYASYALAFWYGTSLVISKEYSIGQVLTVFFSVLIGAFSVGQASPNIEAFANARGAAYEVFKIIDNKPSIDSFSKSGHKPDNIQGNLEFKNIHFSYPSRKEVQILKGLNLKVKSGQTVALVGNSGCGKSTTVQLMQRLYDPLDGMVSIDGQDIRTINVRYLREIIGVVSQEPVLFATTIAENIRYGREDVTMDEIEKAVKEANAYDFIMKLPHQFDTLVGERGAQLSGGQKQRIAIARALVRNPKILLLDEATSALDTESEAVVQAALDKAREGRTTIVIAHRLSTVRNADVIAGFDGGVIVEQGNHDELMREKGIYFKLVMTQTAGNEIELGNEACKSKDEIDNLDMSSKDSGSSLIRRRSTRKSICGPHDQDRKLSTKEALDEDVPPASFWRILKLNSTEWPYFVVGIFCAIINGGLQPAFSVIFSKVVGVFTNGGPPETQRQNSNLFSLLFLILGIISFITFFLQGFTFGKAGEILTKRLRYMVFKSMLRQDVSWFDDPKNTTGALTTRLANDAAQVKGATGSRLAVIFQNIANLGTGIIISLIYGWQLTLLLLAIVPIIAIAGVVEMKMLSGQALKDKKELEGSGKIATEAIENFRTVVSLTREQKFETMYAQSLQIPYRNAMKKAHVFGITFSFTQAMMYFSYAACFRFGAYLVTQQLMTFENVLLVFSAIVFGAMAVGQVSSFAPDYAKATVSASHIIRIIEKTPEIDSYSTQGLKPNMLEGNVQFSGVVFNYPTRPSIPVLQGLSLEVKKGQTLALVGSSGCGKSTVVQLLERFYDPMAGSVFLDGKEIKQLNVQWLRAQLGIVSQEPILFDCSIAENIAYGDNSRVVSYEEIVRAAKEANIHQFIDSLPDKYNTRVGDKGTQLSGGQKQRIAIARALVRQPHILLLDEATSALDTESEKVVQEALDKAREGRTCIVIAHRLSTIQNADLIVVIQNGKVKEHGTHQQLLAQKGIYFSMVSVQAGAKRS

Chain of P-glycoprotein (Pgp) (P08183 whole entry): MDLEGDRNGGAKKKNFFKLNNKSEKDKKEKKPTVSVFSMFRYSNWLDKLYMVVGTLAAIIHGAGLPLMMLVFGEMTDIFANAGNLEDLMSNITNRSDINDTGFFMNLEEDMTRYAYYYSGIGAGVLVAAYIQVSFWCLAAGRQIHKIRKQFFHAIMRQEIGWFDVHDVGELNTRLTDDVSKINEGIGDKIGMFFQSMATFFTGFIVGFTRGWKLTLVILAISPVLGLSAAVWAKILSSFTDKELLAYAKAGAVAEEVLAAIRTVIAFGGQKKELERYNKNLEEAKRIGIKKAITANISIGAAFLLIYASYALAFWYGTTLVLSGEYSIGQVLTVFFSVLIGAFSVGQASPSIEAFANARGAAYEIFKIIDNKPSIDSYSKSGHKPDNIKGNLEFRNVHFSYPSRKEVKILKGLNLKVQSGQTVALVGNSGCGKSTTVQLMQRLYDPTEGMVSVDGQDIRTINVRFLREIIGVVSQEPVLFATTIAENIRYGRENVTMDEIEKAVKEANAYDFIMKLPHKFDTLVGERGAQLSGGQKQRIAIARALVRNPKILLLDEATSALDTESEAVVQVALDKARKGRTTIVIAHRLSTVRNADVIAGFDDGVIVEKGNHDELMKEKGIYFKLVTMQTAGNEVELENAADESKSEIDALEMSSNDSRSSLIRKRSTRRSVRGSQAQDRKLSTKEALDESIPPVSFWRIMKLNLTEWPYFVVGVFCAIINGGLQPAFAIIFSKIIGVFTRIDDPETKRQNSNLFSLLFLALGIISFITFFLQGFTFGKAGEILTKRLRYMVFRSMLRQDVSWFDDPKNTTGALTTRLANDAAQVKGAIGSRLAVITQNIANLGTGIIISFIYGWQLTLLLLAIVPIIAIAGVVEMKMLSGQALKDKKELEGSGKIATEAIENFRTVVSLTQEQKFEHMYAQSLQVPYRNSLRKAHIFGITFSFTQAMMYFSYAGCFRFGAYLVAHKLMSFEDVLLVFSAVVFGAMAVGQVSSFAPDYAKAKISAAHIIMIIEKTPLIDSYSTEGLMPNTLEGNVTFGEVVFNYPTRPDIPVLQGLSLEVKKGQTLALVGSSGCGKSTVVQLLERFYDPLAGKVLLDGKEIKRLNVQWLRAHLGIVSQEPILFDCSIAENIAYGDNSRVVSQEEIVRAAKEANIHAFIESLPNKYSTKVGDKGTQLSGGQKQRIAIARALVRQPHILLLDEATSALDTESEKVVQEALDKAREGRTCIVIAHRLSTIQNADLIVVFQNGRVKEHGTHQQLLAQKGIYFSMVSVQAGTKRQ

IC50 (P-glycoprotein (Pgp)): 8.5 ± 2.5 nM
SMILES: COc1cc2c(cc1OC)CN(CCc1ccc(NC(=O)c3cc(OC)c(OC)cc3NC(=O)c3cnc4ccccc4c3)cc1)CC2 [tariquidar]

SMILES: COc1cc2c(cc1OC)CN(CCc1ccc(NC(=O)c3cc(OC)c(OC)cc3NC(=O)c3cnc4ccccc4c3)cc1)CC2 [[^11C]tariquidar]
higher AUC0-60 in EMT6Ar1.0 than in EMT6 tumors (EMT6Ar1.0 tumors): approximately 60% | mean brain AUC0-60 [1]: 17 ± 2 min | mean brain AUC0-60 [2]: 9 ± 1 min

IC50 (P-glycoprotein (Pgp); read-out: IC50 for inhibition of Pgp-mediated rhodamine 123 efflux, CCRFvcr1000 cells, mean±SD, at least 3 independent experiments in duplicate): 375 ± 60 nM
SMILES: COc1ccc(-c2ccc(CN3CCc4cc(OC)c(OC)cc4C3)cc2)cc1 [MC113]
